Assay [1] deals with T1, Coagulation factor XI (Homo sapiens, UniProt P03951). The experiment in a line: Inhibition of factor 11a (unknown origin) at 10 uM relative to control.
In assay [2] the target is T2, Coagulation factor VII (Homo sapiens) (UniProt P08709).
T2 sequence (whole entry): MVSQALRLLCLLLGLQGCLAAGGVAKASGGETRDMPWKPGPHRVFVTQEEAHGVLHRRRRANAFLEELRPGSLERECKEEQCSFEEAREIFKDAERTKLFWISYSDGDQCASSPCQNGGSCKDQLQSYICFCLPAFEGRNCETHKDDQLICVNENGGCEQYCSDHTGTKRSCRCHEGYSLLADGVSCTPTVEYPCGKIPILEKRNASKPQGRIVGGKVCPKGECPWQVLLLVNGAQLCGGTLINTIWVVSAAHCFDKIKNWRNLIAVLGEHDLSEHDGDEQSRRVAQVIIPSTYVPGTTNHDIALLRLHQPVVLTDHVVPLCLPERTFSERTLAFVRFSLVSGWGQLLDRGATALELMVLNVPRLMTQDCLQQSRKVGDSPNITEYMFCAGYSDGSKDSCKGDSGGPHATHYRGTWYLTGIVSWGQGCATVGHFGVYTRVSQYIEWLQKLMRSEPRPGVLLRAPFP
The experiment in a line: (§1) Inhibition of factor 7a (unknown origin).

Assay [3] addresses Coagulation factor IX (Homo sapiens, UniProt P00740). The experiment in a line: Inhibition of factor 9a (unknown origin).
Assay [4] deals with T1, Coagulation factor XI. Briefly: Inhibition of factor 11a (unknown origin).
For assay [5], the target named is Prothrombin (Homo sapiens, UniProt P00734). The experiment in a line: Inhibition of thrombin (unknown origin).
Assay [6] addresses Coagulation factor X (Homo sapiens, UniProt P00742). The experiment in a line: Inhibition of factor 10a (unknown origin).
The target in assay [7] is T3, Coagulation factor VII (Homo sapiens, UniProt P08709).
T3 sequence (P08709 whole entry): T2 sequence (whole entry)
Described as §1.

Assay [8] has as its target Trypsin (Homo sapiens, UniProt P07477+P07478+P35030). Briefly: Inhibition of trypsin (unknown origin). The format is protein assay.
Assay [9] concerns the target T4, Coagulation factor XII (Homo sapiens, UniProt P00748).
T4 sequence (P00748 whole entry): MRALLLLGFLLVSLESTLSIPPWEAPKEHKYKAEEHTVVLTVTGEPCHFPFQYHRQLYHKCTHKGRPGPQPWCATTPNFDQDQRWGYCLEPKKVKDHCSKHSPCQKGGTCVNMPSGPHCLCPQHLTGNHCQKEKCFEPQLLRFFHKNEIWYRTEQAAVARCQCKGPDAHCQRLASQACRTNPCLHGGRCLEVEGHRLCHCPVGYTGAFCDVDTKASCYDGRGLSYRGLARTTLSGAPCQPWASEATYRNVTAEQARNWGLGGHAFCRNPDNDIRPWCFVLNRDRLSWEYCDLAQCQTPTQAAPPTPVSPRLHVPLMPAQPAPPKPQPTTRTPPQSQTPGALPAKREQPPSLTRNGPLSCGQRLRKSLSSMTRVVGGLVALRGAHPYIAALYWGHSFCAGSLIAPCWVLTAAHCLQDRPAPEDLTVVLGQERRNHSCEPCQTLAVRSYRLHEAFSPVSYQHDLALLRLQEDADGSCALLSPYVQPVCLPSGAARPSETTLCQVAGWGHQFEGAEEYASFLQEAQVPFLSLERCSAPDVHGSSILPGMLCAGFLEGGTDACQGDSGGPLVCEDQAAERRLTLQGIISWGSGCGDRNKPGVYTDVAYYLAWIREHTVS
The experiment in a line: Inhibition of factor 12a (unknown origin).

Each structure is given as a SMILES string. Active and inactive are the calls of the source. The rule behind the calls is not given here.

T1 sequence (P03951 19-387 limits assumed): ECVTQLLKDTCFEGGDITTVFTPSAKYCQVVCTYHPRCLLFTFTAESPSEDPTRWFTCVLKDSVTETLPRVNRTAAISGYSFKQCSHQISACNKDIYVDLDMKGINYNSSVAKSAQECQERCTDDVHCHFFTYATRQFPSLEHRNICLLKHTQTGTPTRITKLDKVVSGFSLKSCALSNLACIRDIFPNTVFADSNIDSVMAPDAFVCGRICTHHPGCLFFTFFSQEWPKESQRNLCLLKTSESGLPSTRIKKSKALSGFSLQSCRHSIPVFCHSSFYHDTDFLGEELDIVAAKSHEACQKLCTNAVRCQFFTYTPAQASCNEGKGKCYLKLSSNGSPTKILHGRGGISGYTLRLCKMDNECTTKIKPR
T1 sequence (P03951 388-625 limits assumed): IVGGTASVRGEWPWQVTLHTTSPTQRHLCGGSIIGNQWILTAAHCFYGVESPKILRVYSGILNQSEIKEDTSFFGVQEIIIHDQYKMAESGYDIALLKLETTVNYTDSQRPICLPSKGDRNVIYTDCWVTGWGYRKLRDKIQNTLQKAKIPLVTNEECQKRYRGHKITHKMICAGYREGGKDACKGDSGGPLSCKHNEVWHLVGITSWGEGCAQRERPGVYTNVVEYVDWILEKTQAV
Coagulation factor X, sequence (P00742 41-179 limits assumed): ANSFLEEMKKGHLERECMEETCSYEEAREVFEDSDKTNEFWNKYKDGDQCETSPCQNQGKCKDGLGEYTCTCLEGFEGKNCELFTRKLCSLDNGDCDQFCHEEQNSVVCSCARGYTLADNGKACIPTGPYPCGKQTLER
Coagulation factor X, sequence (P00742 235-488 limits assumed): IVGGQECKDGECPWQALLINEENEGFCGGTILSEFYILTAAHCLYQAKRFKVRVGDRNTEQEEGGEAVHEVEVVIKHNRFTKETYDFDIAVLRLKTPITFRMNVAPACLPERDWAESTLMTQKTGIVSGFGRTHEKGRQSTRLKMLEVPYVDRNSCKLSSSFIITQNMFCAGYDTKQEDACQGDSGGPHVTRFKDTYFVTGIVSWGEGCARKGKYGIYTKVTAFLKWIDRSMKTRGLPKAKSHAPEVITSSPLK
Coagulation factor IX, sequence (P00740 47-191 limits assumed): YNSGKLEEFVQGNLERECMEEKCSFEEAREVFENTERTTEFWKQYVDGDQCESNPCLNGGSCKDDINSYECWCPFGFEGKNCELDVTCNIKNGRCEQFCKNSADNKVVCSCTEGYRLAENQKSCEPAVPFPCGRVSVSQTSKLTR
Coagulation factor IX, sequence (P00740 227-461 limits assumed): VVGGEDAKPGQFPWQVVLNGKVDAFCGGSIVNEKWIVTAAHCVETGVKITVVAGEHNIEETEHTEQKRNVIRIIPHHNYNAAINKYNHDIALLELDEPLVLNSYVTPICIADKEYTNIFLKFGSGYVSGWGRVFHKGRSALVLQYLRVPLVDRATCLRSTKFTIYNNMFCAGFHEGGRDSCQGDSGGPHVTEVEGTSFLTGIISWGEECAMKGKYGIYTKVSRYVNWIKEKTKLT

Turning to `Nc1ncnc2cc(CNC(=O)[C@@H]3CCCN3C(=O)[C@@H](CC3CCCCC3)NC3CCCCC3)ccc12`, the inhibition in assay [1] came out at 10%.

Regarding `Nc1nccc2cc(CNC(=O)[C@@H]3CCCN3C(=O)[C@@H](CC3CCCCC3)NC3CCCCC3)ccc12`, the inhibition result in assay [2], in [3] and in assay [6] was “Active” in each case. Also, the IC50 in assay [4] came out at 160 nM; in assay [5] it was 1 nM.

On to `CC[C@@H](C)[C@@H](NS(=O)(=O)Cc1ccc(C(F)(F)F)cc1)C(=O)N1C[C@@](C)(O)C[C@H]1C(=O)NCc1ccc2c(N)nccc2c1`, for which the IC50 is 2780 nM in assay [7]; 2912 nM in assay [8]; greater than 30000 nM in assay [3]; greater than 30000 nM in assay [9]; 46 nM in [4]; 521 nM in [5]. The compound also registered an IC50 in assay [6] of 328 nM.

Regarding `CC[C@@H](C)[C@@H](NC1CCC(F)(F)CC1)C(=O)N1C[C@](O)(CC)C[C@H]1C(=O)NCc1ccc2c(N)nccc2c1`, the IC50 was 3800 nM in assay [7]; 2701 nM in assay [8]; greater than 30000 nM in assay [3]; greater than 10000 nM in assay [9]; 88 nM in assay [4]; 1190 nM in assay [5]. The compound further registered an IC50 in assay [6] of 652 nM.

On to `CC[C@@H](C)[C@@H](NC(C)C(F)F)C(=O)N1C[C@@](C)(O)C[C@H]1C(=O)NCc1ccc2c(N)nccc2c1` (stereo partly drawn), for which the IC50 in assay [7] is 2760 nM; in assay [8], 4034 nM; in assay [3], greater than 10000 nM; in assay [9], greater than 10000 nM; in assay [4], 77 nM; in assay [5], 3630 nM. In assay [6], this compound gave a concentration for half-maximal inhibition (IC50) of 798 nM.

`Nc1ncnc2oc(CNC(=O)[C@@H]3CCCN3C(=O)[C@@H](CC3CCCCC3)NC3CCCCC3)cc12`: in assay [1], the inhibition is 8%.

In assay [1], `Cc1cc2cc(CNC(=O)[C@@H]3CCCN3C(=O)[C@@H](CC3CCCCC3)NC3CCCCC3)ccc2c(N)n1` came in with an inhibition of 61%.

In the case of `CC[C@@H](C)[C@@H](NC1CCCCC1)C(=O)N1C[C@@](C)(C#N)C[C@H]1C(=O)NCc1ccc2c(N)nccc2c1`, the IC50 in [7] is 1130 nM; in assay [8] it was 3371 nM; in assay [3], greater than 10000 nM; in assay [9], 7290 nM; in assay [4], 28 nM; in assay [5], 289 nM. The same compound registered an IC50 in [6] of 2740 nM.

Regarding `CC[C@@H](C)[C@@H](NC1CCCCC1)C(=O)N1C[C@](O)(CC)C[C@H]1C(=O)NCc1ccc2c(N)nccc2c1`, the IC50 in assay [7] is 646 nM; in [8], 410 nM; in assay [3] it was greater than 10000 nM; in assay [9] it was 426 nM; in assay [4], 22 nM; in [5] it was 92 nM. Further, the IC50 in assay [6] was found to be 93 nM.

`CC[C@@H](C)[C@@H](NS(=O)(=O)Cc1ccc(Cl)cc1)C(=O)N1C[C@@](C)(C#N)C[C@H]1C(=O)NCc1ccc2c(N)nccc2c1`: the IC50 was 285 nM in assay [7]; 2526 nM in [8]; greater than 30000 nM in [3]; greater than 20000 nM in assay [9]; 10 nM in assay [4]; 43 nM in assay [5]. Besides, the IC50 in assay [6] was 829 nM.

As to `CC[C@@H](C)[C@@H](NC1CCCCC1)C(=O)N1C[C@@H](O)C[C@H]1C(=O)NCc1ccc2c(N)nccc2c1`, the IC50 amounted to 993 nM in [7]; 824 nM in [8]; 8330 nM in assay [3]; 341 nM in assay [9]; 21 nM in [4]; 309 nM in [5]. This compound showed an IC50 in [6] of 136 nM.

On to `CC[C@@H](C)[C@@H](NS(=O)(=O)Cc1ccc(Cl)cc1)C(=O)N1C[C@@](C)(O)C[C@H]1C(=O)NCc1ccc2c(N)nccc2c1`, for which the IC50 in assay [7] was 2020 nM; in assay [8], 2020 nM; in assay [3], greater than 20000 nM; in assay [9], greater than 30000 nM; in assay [4] it was 15 nM; in assay [5], 370 nM. The compound further registered an IC50 in assay [6] of 78 nM.

`CC[C@@H](C)[C@@H](NC1CCCCC1)C(=O)N1C[C@@](C)(O)C[C@H]1C(=O)NCc1ccc2c(N)nccc2c1`: the IC50 in assay [7] came to 461 nM; in [8] it was 547 nM; in assay [3], 7830 nM; in assay [9], 241 nM; in [4], 12 nM; in assay [5] it was 218 nM. The compound further registered an IC50 in assay [6] of 49 nM.

In the case of `CC(C)C[C@@H](NC1CCC(C(F)(F)F)CC1)C(=O)N1CCC[C@H]1C(=O)NCc1ccc2c(N)nccc2c1` (stereo partly drawn), the IC50 was 490 nM in assay [4] and 174 nM in [5].

For orientation: inhibition means how much of the control response was suppressed. One may read the IC50 as the point on the concentration scale where inhibition reaches its midpoint. A high value points to a need for much substance.

(Values after ChEMBL document CHEMBL4622852, “Design and synthesis of novel proline based factor XIa selective inhibitors as leads for potential new anticoagulants” (Bioorg Med Chem Lett, 2020).)
